Data as given in patent publication US7655650B2, “Oxadiazine derivatives” (Syngenta Corporation, priority 1992, dated 2010).

Key:
Assay type in all cases: in vivo
Anthonomus grandis = assay: Example B1: Activity against Anthonomus grandis; details: 72 h, 400 ppm spray on young cotton plants, 10 adult beetles, evaluated after 3 days, read-out: percentage reduction in population and percentage reduction in feeding damage (% activity)
Description: Young cotton plants are sprayed with an aqueous emulsion spray mixture comprising 400 ppm of active ingredient. After the spray coating has dried on, the plants are populated with 10 adult Anthonomus grandis and placed into a plastic container. 3 days later, the test is evaluated. The percentage reduction in population and the percentage reduction in feeding damage (% activity) are determined by comparing the number of dead beetles and the feeding damage between the treated and the untreated plants.

Aphis craccivora = assay: Example B2: Activity against Aphis craccivora; details: 400 ppm spray on infected pea seedlings, 20° C., evaluated after 3 and 6 days, read-out: percentage reduction in population (% activity)
Description: (§1) Pea seedlings are infected with Aphis craccivora, subsequently sprayed with a spray mixture comprising 400 ppm of active ingredient and then incubated at 20° C. The test is evaluated after 3 and 6 days. The percentage reduction in population (% activity) is determined by comparing the number of dead aphids on the treated and untreated plants.

Ctenocephalides felis = assay: Example B4: Activity against Ctenocephalides felis (systemic); details: 5 ppm in blood at 37°, fed through membrane, 20 adult fleas, evaluated after 24 and 48 hours, read-out: percentage reduction in population (% activity)
Description: Twenty adult fleas of the species Ctenocephalides felis are placed into a flat, round cage, both sides of which are covered with gauze. A container whose bottom is sealed with a Parafilm membrane is placed onto the cage. In the container there is blood which comprises 5 ppm of active ingredient and which is constantly heated at 37°. The fleas take up blood through the membrane. The test is evaluated 24 and 48 hours after setting up the experiment The percentage reduction in population (% activity) is determined by comparing the number of dead fleas when using treated and untreated blood. 24 hours after the treatment, the blood is replaced by fresh blood which has also been treated.

Diabrotica balteata = assay: Example B5: Activity against Diabrotica balteata; details: 144 h, 400 ppm spray on maize seedlings, 10 larvae in the second stage, evaluated after 6 days, read-out: percentage reduction in population (% activity)
Description: Maize seedlings are sprayed with an aqueous emulsion spray mixture comprising 400 ppm of active ingredient. After the spray coating has dried on, the seedlings are populated with 10 Diabrotica balteata larvae in the second stage and transferred to a plastic container. The test is evaluated after 6 days. The percentage reduction in population (% activity) is determined by comparing the number of dead larvae between the treated and untreated plants.

Heliothis virescens = assay: Example B6: Activity against Heliothis virescens; details: 144 h, 400 ppm spray on young soyabean plants, 10 caterpillars in the first stage, evaluated after 6 days, read-out: percentage reduction in population and in feeding damage (% activity)
Description: Young soyabean plants are sprayed with an aqueous emulsion spray mixture comprising 400 ppm of active ingredient. After the spray coating has dried on, the plants are populated with 10 Heliothis virescens caterpillars in the first stage and transferred to a plastic container. The test is evaluated after 6 days. The percentage reduction in population and in feeding damage (% activity) are determined by comparing the number of dead caterpillars and the feeding damage between the treated and untreated plants.

Myzus persicae = assay: Example B8: Activity against Myzus persicae; details: 400 ppm spray on infected pea seedlings, 20°, evaluated after 3 and 6 days, read-out: percentage reduction in population (% activity)
Description: as §1, with “Myzus persicae,” for “Aphis craccivora,”, “20°.” for “20° C.”

Nephotettix cincticeps = assay: Example B10: Activity against Nephotettix cincticeps; details: 504 h, 400 ppm spray on rice plants, larvae in the 2nd and 3rd stages, evaluated after 21 days, read-out: percentage reduction in population (% activity)
Description: (§2) Rice plants are sprayed with an aqueous emulsion spray mixture comprising 400 ppm of active ingredient. After the spray coating has dried on, the plants are populated with larvae in the 2nd and 3rd stages. The test is evaluated after 21 days. The percentage reduction in population (% activity) is determined by comparing the number of surviving leaf hoppers on the treated and untreated, plants.

Nilaparvata lugens = assay: Example B12: Activity against Nilaparvata lugens; details: 504 h, 400 ppm spray on rice plants, larvae in the 2nd and 3rd stages, evaluated after 21 days, read-out: percentage reduction in population (% activity)
Description: as §2, with “populated with plant hopper larvae in” for “populated with larvae in”, “of surviving plant hoppers on” for “of surviving leaf hoppers on”, “treated and untreated plants.” for “treated and untreated, plants.”

CN1COCN(Cc2ccc(Cl)nc2)/C1=N/[N+](=O)[O-] [Compound No. 1.2, 5-(2-Chloropyrid-5-ylmethyl)-3-methyl-4-nitroiminoperhydro-1,3,5-oxadiazine]
> 80%: inhibition at 400 ppm (Anthonomus grandis) | inhibition at 400 ppm (Aphis craccivora) | inhibition at 5 ppm (Ctenocephalides felis) | inhibition at 400 ppm (Diabrotica balteata) | inhibition at 400 ppm (Heliothis virescens) | inhibition at 400 ppm (Myzus persicae) | inhibition at 400 ppm (Nephotettix cincticeps) | inhibition at 400 ppm (Nilaparvata lugens)
